Data set [1] concerns the target T1, human 5-hydroxytryptamine-2C (h5-HT2C) receptor (Homo sapiens, UniProt P28335).
T1 construct: expressed in transfected cells; host or cells: CHO (Chinese Hamster Ovary) cells; membranes
T1 sequence (P28335 33-458): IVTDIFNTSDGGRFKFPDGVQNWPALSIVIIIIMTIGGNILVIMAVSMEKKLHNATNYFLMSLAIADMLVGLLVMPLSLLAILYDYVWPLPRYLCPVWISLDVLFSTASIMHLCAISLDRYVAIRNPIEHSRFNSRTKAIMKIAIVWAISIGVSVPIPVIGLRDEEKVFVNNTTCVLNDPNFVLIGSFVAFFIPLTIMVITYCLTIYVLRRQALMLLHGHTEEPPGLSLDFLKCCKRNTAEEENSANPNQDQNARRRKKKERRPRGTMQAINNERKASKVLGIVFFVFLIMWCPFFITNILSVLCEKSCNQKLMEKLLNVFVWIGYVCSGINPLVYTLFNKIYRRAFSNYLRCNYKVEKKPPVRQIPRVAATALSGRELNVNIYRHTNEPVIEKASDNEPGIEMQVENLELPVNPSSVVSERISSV
Kind of data set: [125I]DOI binding to membranes of CHO cells expressing the human 5-HT2C receptor. As to conditions: [125I]DOI radioligand, CHO cell membranes, room temperature 60 min; read-out: 5-HT2C Affinity Ki.

For a further data set, the target named is T2, human 5-HT2C receptor (Homo sapiens, UniProt P28335).
T2 sequence (P28335 33-458): T1 sequence (P28335 33-458)
Kind of data set: 5-HT2C receptor-stimulated calcium mobilization (FLIPR) in CHO cells.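 For all read-outs here: Fluo-3-AM fluorescence read on FLIPR every 1 s, agonist added after 10 baseline reads, response taken as peak minus lowest raw fluorescence count.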 Type of data set: cell-based. As to conditions: for Emax: CHO, read-out: 5-HT2C Function Emax (%); for Emax / 5-HT2C Function Emax (%): percentage of the response observed with a maximally effective concentration of 5-HT; for EC50: calcium mobilization, CHO cells stably expressing human 5-HT2C, read-out: 5-HT2C Function EC50.

“And” between values parts separate entries of the source, which are not always exact repeats. Identical values can stand only once. Counter-ions that a name gives are not always drawn.

As usually defined, the melting point is the temperature, or range, at which the solid turns liquid. `CN(C)C[C@H]1Cc2cc(F)cc(-c3c(Cl)cccc3Cl)c2O1` (as salt: hydrochloride) [Example 547, (R)-[7-(2,6-dichloro-phenyl)-5-Fluoro-2,3-dihydro-benzofuran-2-ylmethyl]dimethylamine] showed a melting point of 156 to 158 °C.

Compound `Cc1ccc(Cl)cc1-c1cc(F)cc2c1O[C@@H](CN)C2` (as salt: hydrochloride) [Example 548, {[(2R)-7-(5-chloro-2-methylphenyl)-5-fluoro-2,3-dihydro-1-benzofuran-2-yl]methyl}amine] registered a melting point of 148 to 150 °C. Same read-out and setting: next, `Cc1cc(Cl)ccc1-c1cc(F)cc2c1O[C@@H](CN)C2` (as salt: hydrochloride) [Example 549, {[(2R)-7-(4-chloro-2-methylphenyl)-5-fluoro-2,3-dihydro-1-benzofuran-2-yl]methyl}amine]: 183 to 185 °C; `NC[C@H]1Cc2cc(F)cc(-c3c(Cl)cccc3Cl)c2O1` (as salt: hydrochloride) [Example 550, (−)-{[7-(2,6-dichlorophenyl)-5-fluoro-2,3-dihydro-1-benzofuran-2-yl]methyl}amine]: 228 to 230 °C and 231 to 233 °C; `NCC1Cc2ccc(-c3ccccc3)cc2O1` (racemic) (as salt: hydrobromid) [Example 31, (±)-(6-phenyl-2,3-dihydro-1-benzofuran-2-yl)methanamine]: 218 to 221 °C. On the same count and under the same terms, with `NCC1Cc2c(cccc2-c2ccccc2)O1` (racemic) (as salt: hydrochloride) [Example 1, (±)-1-(4-phenyl-2,3-dihydro-1-benzofuran-2-yl)methanamine] the figure was 229 to 230 °C; with `Cc1ccccc1-c1cccc2c1CC(CN)O2` (racemic) (as salt: hydrochloride) [Example 4, (±)-1-[4-(2-methylphenyl)-2,3-dihydro-1-benzofuran-2-yl]methanamine], 231 to 234 °C. As for `COc1cccc2c1OC(CN)C2` (racemic) (as salt: hydrochloride) [Example 7, (±)-1-(7-methoxy-2,3-dihydro-1-benzofuran-2-yl)methanamine], the melting point lay in the range of 168 to 171 °C.

As for `NCC1Cc2cc(Cl)cc(C3CCCCC3)c2O1` (racemic) (as salt: hydrochloride) [Example 11, (±)-(5-chloro-7-cyclohexyl-2,3-dihydro-1-benzofuran-2-yl)methylamine], the melting point fell in the range of 210 to 213 °C. `CNCC1Cc2cc(Cl)cc(C3CCCCC3)c2O1` (racemic) (as salt: hydrochloride) [Example 12, (±)-N-[(5-chloro-7-cyclohexyl-2,3-dihydro-1-benzofuran-2-yl)methyl]-N-methylamine]: the melting point is 125 to 128 °C. Same read-out and setting: with `COc1cc2c(c(C(C)(C)C)c1)OC(CN)C2` (racemic) (as salt: hydrochloride) [Example 13, (±)-(7-tert-butyl-5-methoxy-2,3-dihydro-1-benzofuran-2-yl)methylamine] the figure was 174 to 176 °C; with `NCC1Cc2c(C(F)(F)F)ccc(Cl)c2O1` (racemic) (as salt: hydrochloride) [Example 14, (±)-[7-chloro-4-(trifluoromethyl)-2,3-dihydro-1-benzofuran-2-yl]methanamine], more than 250 °C.

Turning to `NCC1Cc2cccc(Cc3ccccc3)c2O1` (racemic) (as salt: hydrochloride) [Example 15, (±)-1-(7-benzyl-2,3-dihydro-1-benzofuran-2-yl)methanamine], the melting point was 107 to 111 °C (dec.). Turning to `CC(C)c1cccc2c1OC(CN)C2` (racemic) (as salt: hydrochloride) [Example 18, (±)-(7-isopropyl-2,3-dihydro-1-benzofuran-2-yl)methylamine], the melting point was 160 to 164 °C (dec.).

In the case of `Cc1c(Cl)cc(C(C)C)c2c1CC(CN)O2` (racemic) (as salt: hydrochloride) [Example 21, (±)-1-(5-chloro-7-isopropyl-4-methyl-2,3-dihydro-1-benzofuran-2-yl)methanamine], the melting point was > 225 °C (dec.). Take `CC(C)(C)c1cccc2c1OC(CN)C2` (racemic) (as salt: hydrochloride) [Example 24, (±)-1-(7-tert-butyl-2,3-dihydro-1-benzofuran-2-yl)methanamine]: the melting point is 177 to 180 °C (dec.). Still for that read-out and setting: with `CC(C)(C)c1cc(Cl)cc2c1OC(CN)C2` (racemic) (as salt: hydrochloride) [Example 27, (±)-1-(7-tert-butyl-5-chloro-2,3-dihydro-1-benzofuran-2-yl)methanamine] the figure was 229 to 231 °C. For the compound `COc1ccc2c(c1)OC(CN)C2` (racemic) (as salt: hydrochloride) [Example 30, (±)-1-(6-methoxy-2,3-dihydro-1-benzofuran-2-yl)methanamine], the melting point was more than 220 °C. Still for that read-out and setting: with `NCC1Cc2cccc(-c3cc(C(F)(F)F)cc(C(F)(F)F)c3)c2O1` (racemic) (as salt: hydrochloride) [Example 32, (±)-1-{7-[3,5-bis(trifluoromethyl)phenyl]-2,3-dihydro-1-benzofuran-2-yl}methanamine] the figure was 174 to 175 °C (dec.); with `NCC1Cc2cccc(-c3cccc4ccccc34)c2O1` (racemic) (as salt: hydrochloride) [Example 33, (±)-1-[7-(1-naphthyl)-2,3-dihydro-1-benzofuran-2-yl]methanamine], 120 to 124 °C; with `NCC1Cc2cccc(-c3ccc(F)c(Cl)c3)c2O1` (racemic) (as salt: hydrochloride) [Example 34, (±)-1-[7-(3-chloro-4-fluorophenyl)-2,3-dihydro-1-benzofuran-2-yl]methanamine], more than 210 °C.

`NCC1Cc2cccc(-c3cc(Cl)cc(Cl)c3)c2O1` (racemic) (as salt: hydrochloride) [Example 35, (±)-1-[7-(3,5-dichlorophenyl)-2,3-dihydro-1-benzofuran-2-yl]methanamine] displayed a melting point of 165 to 168 °C. Still for that read-out and setting: next, `NCC1Cc2cccc(-c3ccccc3)c2O1` (racemic) (as salt: hydrochloride) [Example 36, (±)-1-(7-phenyl-2,3-dihydro-1-benzofuran-2-yl)methanamine]: > 200 °C (dec.); `NCC1Cc2cccc(-c3ccc4ccccc4c3)c2O1` (racemic) (as salt: hydrochloride) [Example 39, (±)-1-[7-(2-naphthyl)-2,3-dihydro-1-benzofuran-2-yl]methanamine]: 135 to 140 °C; `Cc1cccc(-c2cccc3c2OC(CN)C3)c1` (racemic) (as salt: hydrochloride) [Example 41, (±)-1-[7-(3-methylphenyl)-2,3-dihydro-1-benzofuran-2-yl]methanamine]: > 210 °C (dec.). The Ki is a dissociation constant, usually derived from enzyme kinetics or from competition with a known ligand. What is called Emax is the size of the effect at its maximum, as opposed to the concentration needed. The term EC50 denotes the concentration needed to bring the measured effect to its halfway point. With `CNCC1Cc2cc(F)cc(-c3ccccc3C)c2O1` (single isomer, unassigned; (-)) [Example 441, (−)-{[5-fluoro-7-(2-methylphenyl)-2,3-dihydro-1-benzofuran-2-yl]methyl}methylamine], the Ki in data set [1] was found to be 10 nM. On human 5-HT2C receptor, the Emax came out at 70% and the EC50 stood at 531 nM. Turning to `CNCC1Cc2cc(F)cc(-c3cc(Cl)ccc3Cl)c2O1` (single isomer, unassigned; (-)) [Example 451, (−)-{[5-fluoro-7-(2,5-dichlorophenyl)-2,3-dihydro-1-benzofuran-2-yl]methyl}methylamine], in data set [1], the Ki stood at 0.31 nM. For the same compound, at human 5-HT2C receptor, the half-maximal effective concentration (EC50) is 137 nM and the “5-HT2C Function Emax (%)” value is 80%. For `CNCC1Cc2cc(C)cc(-c3cc(Cl)ccc3Cl)c2O1` (single isomer, unassigned; (-)) [Example 488, (−)-{[7-(2,5-dichlorophenyl)-5-methyl-2,3-dihydro-1-benzofuran-2-yl]methyl}methylamine], the Ki in data set [1] came out at 0.34 nM. Moreover, at human 5-HT2C receptor, the EC50 worked out at 132 nM and the “5-HT2C Function Emax (%)” value turned out to be 90%.

With `CNCC1Cc2cc(F)cc(-c3c(C)cccc3C)c2O1` (single isomer, unassigned; (-)) [Example 559, (−)-{[7-(2,6-dimethylphenyl)-5-fluoro-2,3-dihydro-1-benzofuran-2-yl]methyl}methylamine], the Ki in data set [1] came out at 0.3 nM. Besides, on human 5-HT2C receptor, the EC50 is 7 nM and the “5-HT2C Function Emax (%)” value worked out at 90%. In the case of `CNCC1Cc2cc(OC)cc(-c3c(C)cccc3C)c2O1` (single isomer, unassigned; (-)) [Example 560, (−)-{[7-(2,6-dimethylphenyl)-5-methoxy-2,3-dihydro-1-benzofuran-2-yl]methyl}methylamine], in data set [1], the Ki was found to be 0.35 nM. Also, on human 5-HT2C receptor, the Emax was 100% and the EC50 came to 2 nM. Consider `CNC[C@H]1Cc2cc(F)cc(-c3ccccc3Cl)c2O1` [Example 545, (R)-[7-(2-chloro-phenyl)-5-fluoro-2,3-dihydro-benzofuran-2-ylmethyl]-methyl-amine], for which the Ki in data set [1] was determined as 0.14 nM. At human 5-HT2C receptor, the Emax turned out to be 100% and the EC50 was found to be 0.1 nM.

The record behind these values is patent US7435837B2, “Dihydrobenzofuranyl alkanamine derivatives and methods for using same” (Wyeth, priority 2003, dated 2008).
